In paper PMC12649549, “Sequence Permutation Generated Lysine and Tryptophan-Rich Antimicrobial Peptides with Enhanced Therapeutic Index” (Antibiotics, 2025):
Read-outs that look alike come from different tables or passages of the source.

Columns and labels:
[1] = system: A. baumannii 14B0097 (Acinetobacter sp., BCRC number 14B0097)
Summary of the method: (§1)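 Broth microdilution per CLSI in Müller-Hinton broth and modified LYM broth (pH 7.4; variants with 50–300 mM NaCl, 0.5–2.5 mM MgCl2, or pH 6.5–4.5). Inoculum 5 × 10^5 CFU/mL; peptides tested at 0.78–50 µg/mL final. MIC read; three independent repeats.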

[2] = system: S. aureus ATCC 33593
Summary of the method: as §1

[3] = system: A. baumannii 14B0091 (Acinetobacter sp., BCRC number 14B0091)
Summary of the method: as §1

[4] = system: S. aureus ATCC 33591
Summary of the method: as §1

[5] = system: Escherichia coli (ATCC 25922)
Summary of the method: as §1

[6] = system: A. baumannii 14B00100 (Acinetobacter sp., BCRC number 14B0100)
Summary of the method: as §1

[7] = system: S. aureus ATCC 6538
Summary of the method: as §1

[8] = system: S. aureus ATCC 25923
Summary of the method: as §1

[9] = LYM broth, 0 mM NaCl, 16 h, 37 °C
[10] = LYM broth, 50 mM NaCl, 16 h, 37 °C
[11] = LYM broth, 100 mM NaCl, 16 h, 37 °C
[12] = LYM broth, 200 mM (NaCl), 16 h, 37 °C
[13] = LYM broth, 300 mM (NaCl), 16 h, 37 °C
[14] = MH broth, 5 × 10^5 CFU/mL, 16 h, 37 °C, repeated three times

Substance: Ac-AKKKKWRKWLKWL-NH2 [Peptide W5K10]
- MIC [1, 9]: 1.56 µg/mL
- MIC ([1]; LYM broth, 0.5 mM MgCl2): 1.56 µg/mL
- MIC ([1]; LYM broth, 1.5 mM MgCl2): 1.56 µg/mL
- MIC ([1]; LYM broth, 2.5 mM MgCl2): 3.13 µg/mL
- MIC [1, 10]: 1.56 µg/mL
- MIC [1, 11]: 1.56 µg/mL
- MIC [1, 12]: 1.56 µg/mL
- MIC [1, 13]: 6.25 µg/mL
- MIC ([1]; LYM broth, pH 4.5): 3.13 µg/mL
- MIC ([1]; LYM broth, pH 5.5): 1.56 µg/mL
- MIC ([1]; LYM broth, pH 6.5): 1.56 µg/mL
- MIC [1, 14]: 1.56 µg/mL
- MIC [2, 9]: 3.13 µg/mL
- MIC ([2]; LYM broth, 0.5 mM MgCl2): 3.13 µg/mL
- MIC ([2]; LYM broth, 1.5 mM MgCl2): 3.13 µg/mL
- MIC ([2]; LYM broth, 2.5 mM MgCl2): 6.25 µg/mL
- MIC [2, 10]: 6.25 µg/mL
- MIC [2, 11]: 6.25 µg/mL
- MIC [2, 12]: 12.5 µg/mL
- MIC [2, 13]: 25 µg/mL
- MIC ([2]; LYM broth, pH 4.5): 6.25 µg/mL
- MIC ([2]; LYM broth, pH 5.5): 3.13 µg/mL
- MIC ([2]; LYM broth, pH 6.5): 3.13 µg/mL
- MIC [2, 14]: 12.5 µg/mL
- MIC [3, 9]: 1.56 µg/mL
- MIC ([3]; LYM broth, 0.5 mM MgCl2): 1.56 µg/mL
- MIC ([3]; LYM broth, 1.5 mM MgCl2): 1.56 µg/mL
- MIC ([3]; LYM broth, 2.5 mM MgCl2): 3.13 µg/mL
- MIC [3, 10]: 1.56 µg/mL
- MIC [3, 11]: 1.56 µg/mL
- MIC [3, 12]: 1.56 µg/mL
- MIC [3, 13]: 3.13 µg/mL
- MIC ([3]; LYM broth, pH 4.5): 3.13 µg/mL
- MIC ([3]; LYM broth, pH 5.5): 1.56 µg/mL
- MIC ([3]; LYM broth, pH 6.5): 1.56 µg/mL
- MIC [3, 14]: 1.56 µg/mL
- MIC [4, 9]: 3.13 µg/mL
- MIC ([4]; LYM broth, 0.5 mM MgCl2): 3.13 µg/mL
- MIC ([4]; LYM broth, 1.5 mM MgCl2): 3.13 µg/mL
- MIC ([4]; LYM broth, 2.5 mM MgCl2): 6.25 µg/mL
- MIC [4, 10]: 6.25 µg/mL
- MIC [4, 11]: 6.25 µg/mL
- MIC [4, 12]: 12.5 µg/mL
- MIC [4, 13]: 25 µg/mL
- MIC ([4]; LYM broth, pH 4.5): 6.25 µg/mL
- MIC ([4]; LYM broth, pH 5.5): 3.13 µg/mL
- MIC ([4]; LYM broth, pH 6.5): 3.13 µg/mL
- MIC [4, 14]: 12.5 µg/mL
- MIC [5, 9]: 3.13 µg/mL
- MIC ([5]; LYM broth, 0.5 mM MgCl2): 3.13 µg/mL
- MIC ([5]; LYM broth, 1.5 mM MgCl2): 6.25 µg/mL
- MIC ([5]; LYM broth, 2.5 mM MgCl2): 6.25 µg/mL
- MIC [5, 10]: 3.13 µg/mL
- MIC [5, 11]: 12.5 µg/mL
- MIC [5, 12]: 12.5 µg/mL
- MIC [5, 13]: 25 µg/mL
- MIC ([5]; LYM broth, pH 4.5): 3.13 µg/mL
- MIC ([5]; LYM broth, pH 5.5): 1.56 µg/mL
- MIC ([5]; LYM broth, pH 6.5): 1.56 µg/mL
- MIC [5, 14]: 6.25 µg/mL
- MIC [6, 9]: 1.56 µg/mL
- MIC ([6]; LYM broth, 0.5 mM MgCl2): 1.56 µg/mL
- MIC ([6]; LYM broth, 1.5 mM MgCl2): 1.56 µg/mL
- MIC ([6]; LYM broth, 2.5 mM MgCl2): 3.13 µg/mL
- MIC [6, 10]: 1.56 µg/mL
- MIC [6, 11]: 1.56 µg/mL
- MIC [6, 12]: 1.56 µg/mL
- MIC [6, 13]: 3.13 µg/mL
- MIC ([6]; LYM broth, pH 4.5): 1.56 µg/mL
- MIC ([6]; LYM broth, pH 5.5): 1.56 µg/mL
- MIC ([6]; LYM broth, pH 6.5): 1.56 µg/mL
- MIC [6, 14]: 3.13 µg/mL
- MIC [7, 9]: 1.56 µg/mL
- MIC ([7]; LYM broth, 0.5 mM MgCl2): 1.56 µg/mL
- MIC ([7]; LYM broth, 1.5 mM MgCl2): 1.56 µg/mL
- MIC ([7]; LYM broth, 2.5 mM MgCl2): 1.56 µg/mL
- MIC [7, 10]: 1.56 µg/mL
- MIC [7, 11]: 3.13 µg/mL
- MIC [7, 12]: 6.25 µg/mL
- MIC [7, 13]: 12.5 µg/mL
- MIC ([7]; LYM broth, pH 4.5): 6.25 µg/mL
- MIC ([7]; LYM broth, pH 5.5): 3.13 µg/mL
- MIC ([7]; LYM broth, pH 6.5): 1.56 µg/mL
- MIC [7, 14]: 6.25 µg/mL
- MIC [8, 9]: 3.13 µg/mL
- MIC ([8]; LYM broth, 0.5 mM MgCl2): 1.56 µg/mL
- MIC ([8]; LYM broth, 1.5 mM MgCl2): 3.13 µg/mL
- MIC ([8]; LYM broth, 2.5 mM MgCl2): 3.13 µg/mL
- MIC [8, 10]: 3.13 µg/mL
- MIC [8, 11]: 6.25 µg/mL
- MIC [8, 12]: 12.5 µg/mL
- MIC [8, 13]: 25 µg/mL
- MIC ([8]; LYM broth, pH 4.5): 3.13 µg/mL
- MIC ([8]; LYM broth, pH 5.5): 3.13 µg/mL
- MIC ([8]; LYM broth, pH 6.5): 3.13 µg/mL
- MIC [8, 14]: 6.25 µg/mL
